Details: Gas, Burnett expansion method

[He] [helium]
Details | mass density [kg/m3]
323.66 K, 875.31 kPa | 1.297
323.67 K, 386.6 kPa | 0.5746
323.67 K, 1986.4 kPa | 2.9278
323.67 K, 2996.7 kPa | 4.3975
323.68 K, 581.96 kPa | 0.8635
323.68 K, 1318.2 kPa | 1.9481
323.68 K, 4542.5 kPa | 6.6206
333.58 K, 398.41 kPa | 0.5744
333.58 K, 901.91 kPa | 1.2964
333.58 K, 1358 kPa | 1.9472
333.58 K, 3086.7 kPa | 4.3949
333.58 K, 4675.1 kPa | 6.6128
333.59 K, 2046.3 kPa | 2.926
333.62 K, 599.5 kPa | 0.8631
343.5 K, 616.99 kPa | 0.8628
343.5 K, 1397.8 kPa | 1.9464
343.51 K, 928.6 kPa | 1.2959
343.51 K, 3177 kPa | 4.3922
343.51 K, 4808.1 kPa | 6.6049
343.52 K, 410.1 kPa | 0.5742
343.52 K, 2106 kPa | 2.9243
353.39 K, 421.94 kPa | 0.5741
353.39 K, 634.63 kPa | 0.8624
353.39 K, 3267.2 kPa | 4.3896
353.39 K, 4938.7 kPa | 6.5971
353.4 K, 954.95 kPa | 1.2953
353.4 K, 1437.5 kPa | 1.9455
353.4 K, 2165.8 kPa | 2.9225
363.2 K, 2225.1 kPa | 2.9208
363.28 K, 1476.9 kPa | 1.9446
363.28 K, 5072.4 kPa | 6.5893
363.29 K, 433.46 kPa | 0.5739
363.29 K, 433.47 kPa | 0.5739
363.29 K, 652.06 kPa | 0.862
363.29 K, 652.07 kPa | 0.862
363.29 K, 981.18 kPa | 1.2947
363.29 K, 2225 kPa | 2.9208
363.29 K, 3356.7 kPa | 4.387
